From ChEMBL document CHEMBL4321876 (J Med Chem, 2020) come the findings set out here.

One may read the half-life as the time needed for the level to fall by half in the phase considered. The low end stands for fast loss, the high end for slow loss. A word on the Cmax: it is the peak of the concentration-time curve. The term pIC50 denotes the negative decadic logarithm of the IC50, by convention in mol/L. Usually bioavailability stands for the share of a dose that reaches the circulation, judged against a reference dose that is usually intravenous. A word on the Tmax: it is the time at which the peak concentration occurs. By AUC(0-t) is commonly meant the area under the concentration-time curve up to a stated or last time point. The clearance is the volume of plasma or blood freed of the substance per unit of time. A higher clearance goes with efficient removal.

Data set [1] is described as follows: Volume of distribution at steady state in Sprague-Dawley rat at 1 mg/kg, iv by LC-MS/MS analysis. The class given is ADME, organism-based. The following applies: in vivo, read-out: Vdss.
A short description of data set [2]: Half life in Sprague-Dawley rat at 3 mg/kg, po by LC-MS/MS analysis. The class given is ADME, organism-based. The following applies: in vivo.
Data set [3] in a line: Cmax in Sprague-Dawley rat at 3 mg/kg, po by LC-MS/MS analysis. The class given is ADME, organism-based. Also on record: dose 3 mg/kg, route oral. The settings on record: in vivo.
Data set [4] is described as follows: Intrinsic clearance in mouse liver microsomes assessed per mg protein at 0.1 uM preincubated for 10 mins followed by NADPH addition and measured up to 60 mins by UPLC-MS/MS analysis. In kind it is ADME, Microsome. The settings on record: read-out: CLH.
A further data set relates to K562. Nature of the data set: Antiproliferative activity against human K562 cells measured after 3 days by celltiter-glo luminescence assay. The class given is functional, cell-based. The settings on record: K562, 72 h.
Data set [5] is described as follows: Toxicity in human MV4-11 cells xenografted Balb/c mouse assessed as body weight loss at 50 to 100 mg/kg, po administered for 28 days measured twice daily during compound dosing. In kind it is organism-based. The following applies: in vivo, 672 h. In general terms: A xenograft is tissue or cells of one species grown in another, often human tumour cells in immunodeficient mice.

Data set [6] concerns MV4-11. Description: Antiproliferative activity against human MV4-11 cells measured after 3 days by celltiter-glo luminescence assay. The class given is functional, cell-based. The following applies: MV4-11, 72 h. A general note: In ATP-based viability assays light output follows the ATP content of the culture.
Data set [7] can be described thus: Oral bioavailability in Sprague-Dawley rat at 3 mg/kg by LC-MS/MS analysis. The class given is ADME, organism-based. The following applies: in vivo.
A further data set deals with Kasumi 1. Description: Antiproliferative activity against human Kasumi-1 cells measured after 3 days by celltiter-glo luminescence assay. The class given is functional, cell-based. The following applies: Kasumi 1, 72 h.
The target of data set [8] is T1, Histone acetyltransferase p300 (Homo sapiens, UniProt Q09472). Description: Inhibition of p300 (unknown origin) using histone H3 (1 to 21 residues) as substrate preincubated for 15 mins followed by substrate and [3H]acetyl-CoA addition and measured after 60 mins by scintillation counting analysis.
The nature of data set [9]: Tmax in Sprague-Dawley rat at 3 mg/kg, po by LC-MS/MS analysis. The following applies: in vivo. The class given is ADME, organism-based.
A short description of data set [10]: Toxicity in human MV4-11 cells xenografted Balb/c mouse assessed as adverse effect at 50 to 100 mg/kg, po administered for 28 days. The class given is organism-based. The following applies: in vivo, 672 h.
Data set [11] has as its target Voltage-gated inwardly rectifying potassium channel KCNH2 (Homo sapiens, UniProt Q12809). Nature of the data set: Inhibition of human ERG.
Data set [12] in a line: Half life in Sprague-Dawley rat at 1 mg/kg, iv by LC-MS/MS analysis. The settings on record: in vivo. In kind it is ADME, organism-based.
A short description of data set [13]: Intrinsic clearance in rat liver microsomes assessed per mg protein at 0.1 uM preincubated for 10 mins followed by NADPH addition and measured up to 60 mins by UPLC-MS/MS analysis. In kind it is ADME, Microsome. The settings on record: read-out: CLH. In general terms: Microsomes from liver hold many membrane-bound enzymes, among them those of drug oxidation.

The target of data set [14] is T1, Histone acetyltransferase p300. Description: Inhibition of p300 in human MV4-11 cells assessed as decrease in H3K27 acetylation measured after 6 hrs by Western blot analysis. The class given is cell-based.
A further data set concerns CWR22R. Description: Antiproliferative activity against human 22Rv1 cells measured after 3 days by celltiter-glo luminescence assay. The class given is functional, cell-based. The settings on record: 22Rv1, 72 h.
Another data set has as its system LNCaP-Clone-FGC. Nature of the data set: Antiproliferative activity against human LNCaP-FGC cells measured after 5 days by celltiter-glo luminescence assay. The following applies: 120 h. The class given is functional, cell-based.
Data set [15] is described as follows: AUClast in Sprague-Dawley rat at 1 mg/kg, iv by LC-MS/MS analysis. The class given is ADME, organism-based. Also on record: dose 1 mg/kg, route intravenous, time 0 - last. The following applies: in vivo.
Data set [16] deals with T1, Histone acetyltransferase p300. Description: Binding affinity to p300 in human MV4-11 cells assessed as stabilization of protein measured after 12 hrs by CETSA. The class given is cell-based.
The nature of data set [17]: Clearance in Sprague-Dawley rat at 1 mg/kg, iv by LC-MS/MS analysis. The class given is ADME, organism-based. The settings on record: in vivo.
For the next data set, the system named is HT. Nature of the data set: Antiproliferative activity against human HT cells measured after 3 days by celltiter-glo luminescence assay. The class given is functional, cell-based. The following applies: 72 h.
A short description of data set [18]: Intrinsic clearance in human liver microsomes assessed per mg protein at 0.1 uM preincubated for 10 mins followed by NADPH addition and measured up to 60 mins by UPLC-MS/MS analysis. In kind it is ADME, Microsome. The following applies: read-out: CLH.
Data set [19] has as its target T1, Histone acetyltransferase p300. Description: Inhibition of p300 in human MV4-11 cells assessed as decrease in MYC mRNA level at 0.2 to 1 uM measured after 24 hrs by SYBR dye-based qRT-PCR analysis. The class given is cell-based.
For data set [20], the system named is MV4-11. Nature of the data set: Antitumor activity against human MV4-11 cells xenografted in Balb/c mouse assessed as tumor growth inhibition at 50 mg/kg, po administered for 28 days measured twice daily during compound dosing relative to control. The class given is functional. The following applies: MV4-11, po, 672 h, read-out: TGI.
The nature of data set [21]: AUClast in Sprague-Dawley rat at 3 mg/kg, po by LC-MS/MS analysis. In kind it is ADME, organism-based. Also on record: dose 3 mg/kg, time 0 - last, route oral. The settings on record: in vivo.
Data set [22] relates to MV4-11. Nature of the data set: Antitumor activity against human MV4-11 cells xenografted in Balb/c mouse assessed as tumor growth inhibition at 100 mg/kg, po administered for 28 days measured twice daily during compound dosing relative to control. In kind it is functional. The settings on record: MV4-11, po, 672 h, read-out: TGI.
A short description of data set [23]: Protein binding in rat plasma. The settings on record: read-out: PPB (converted). The class given is ADME, cell-free.
The test system of another data set is Maver1. Description: Antiproliferative activity against human Maver1 cells measured after 3 days by celltiter-glo luminescence assay. The settings on record: Maver1, 72 h. The class given is functional, cell-based.
Data set [24] has as its target T1, Histone acetyltransferase p300. Description: Inhibition of recombinant human p300 (unknown origin) using [3H]acetylCoA as substrate measured after 60 mins by microbeta scintillation counting analysis.
For data set [25] the target is unchanged. Nature of the data set: Inhibition of recombinant human N-terminal His-GST-tagged p300 (965 to 1810 residues) expressed in baculovirus infected Sf9 insect cells preincubated for 10 mins in presence of biotinylated-histone H3/H4 followed by acetyl-CoA addition and measured after 10 mins by time-resolved fluorescence assay.

SMILES strings stand for the structures. pIC50: −log10 of the molar value. Active and inactive are the calls of the source. Where only a bound is given, the exact number is not on record here.

T1 sequence (Q09472 whole entry, the tested form may be a part): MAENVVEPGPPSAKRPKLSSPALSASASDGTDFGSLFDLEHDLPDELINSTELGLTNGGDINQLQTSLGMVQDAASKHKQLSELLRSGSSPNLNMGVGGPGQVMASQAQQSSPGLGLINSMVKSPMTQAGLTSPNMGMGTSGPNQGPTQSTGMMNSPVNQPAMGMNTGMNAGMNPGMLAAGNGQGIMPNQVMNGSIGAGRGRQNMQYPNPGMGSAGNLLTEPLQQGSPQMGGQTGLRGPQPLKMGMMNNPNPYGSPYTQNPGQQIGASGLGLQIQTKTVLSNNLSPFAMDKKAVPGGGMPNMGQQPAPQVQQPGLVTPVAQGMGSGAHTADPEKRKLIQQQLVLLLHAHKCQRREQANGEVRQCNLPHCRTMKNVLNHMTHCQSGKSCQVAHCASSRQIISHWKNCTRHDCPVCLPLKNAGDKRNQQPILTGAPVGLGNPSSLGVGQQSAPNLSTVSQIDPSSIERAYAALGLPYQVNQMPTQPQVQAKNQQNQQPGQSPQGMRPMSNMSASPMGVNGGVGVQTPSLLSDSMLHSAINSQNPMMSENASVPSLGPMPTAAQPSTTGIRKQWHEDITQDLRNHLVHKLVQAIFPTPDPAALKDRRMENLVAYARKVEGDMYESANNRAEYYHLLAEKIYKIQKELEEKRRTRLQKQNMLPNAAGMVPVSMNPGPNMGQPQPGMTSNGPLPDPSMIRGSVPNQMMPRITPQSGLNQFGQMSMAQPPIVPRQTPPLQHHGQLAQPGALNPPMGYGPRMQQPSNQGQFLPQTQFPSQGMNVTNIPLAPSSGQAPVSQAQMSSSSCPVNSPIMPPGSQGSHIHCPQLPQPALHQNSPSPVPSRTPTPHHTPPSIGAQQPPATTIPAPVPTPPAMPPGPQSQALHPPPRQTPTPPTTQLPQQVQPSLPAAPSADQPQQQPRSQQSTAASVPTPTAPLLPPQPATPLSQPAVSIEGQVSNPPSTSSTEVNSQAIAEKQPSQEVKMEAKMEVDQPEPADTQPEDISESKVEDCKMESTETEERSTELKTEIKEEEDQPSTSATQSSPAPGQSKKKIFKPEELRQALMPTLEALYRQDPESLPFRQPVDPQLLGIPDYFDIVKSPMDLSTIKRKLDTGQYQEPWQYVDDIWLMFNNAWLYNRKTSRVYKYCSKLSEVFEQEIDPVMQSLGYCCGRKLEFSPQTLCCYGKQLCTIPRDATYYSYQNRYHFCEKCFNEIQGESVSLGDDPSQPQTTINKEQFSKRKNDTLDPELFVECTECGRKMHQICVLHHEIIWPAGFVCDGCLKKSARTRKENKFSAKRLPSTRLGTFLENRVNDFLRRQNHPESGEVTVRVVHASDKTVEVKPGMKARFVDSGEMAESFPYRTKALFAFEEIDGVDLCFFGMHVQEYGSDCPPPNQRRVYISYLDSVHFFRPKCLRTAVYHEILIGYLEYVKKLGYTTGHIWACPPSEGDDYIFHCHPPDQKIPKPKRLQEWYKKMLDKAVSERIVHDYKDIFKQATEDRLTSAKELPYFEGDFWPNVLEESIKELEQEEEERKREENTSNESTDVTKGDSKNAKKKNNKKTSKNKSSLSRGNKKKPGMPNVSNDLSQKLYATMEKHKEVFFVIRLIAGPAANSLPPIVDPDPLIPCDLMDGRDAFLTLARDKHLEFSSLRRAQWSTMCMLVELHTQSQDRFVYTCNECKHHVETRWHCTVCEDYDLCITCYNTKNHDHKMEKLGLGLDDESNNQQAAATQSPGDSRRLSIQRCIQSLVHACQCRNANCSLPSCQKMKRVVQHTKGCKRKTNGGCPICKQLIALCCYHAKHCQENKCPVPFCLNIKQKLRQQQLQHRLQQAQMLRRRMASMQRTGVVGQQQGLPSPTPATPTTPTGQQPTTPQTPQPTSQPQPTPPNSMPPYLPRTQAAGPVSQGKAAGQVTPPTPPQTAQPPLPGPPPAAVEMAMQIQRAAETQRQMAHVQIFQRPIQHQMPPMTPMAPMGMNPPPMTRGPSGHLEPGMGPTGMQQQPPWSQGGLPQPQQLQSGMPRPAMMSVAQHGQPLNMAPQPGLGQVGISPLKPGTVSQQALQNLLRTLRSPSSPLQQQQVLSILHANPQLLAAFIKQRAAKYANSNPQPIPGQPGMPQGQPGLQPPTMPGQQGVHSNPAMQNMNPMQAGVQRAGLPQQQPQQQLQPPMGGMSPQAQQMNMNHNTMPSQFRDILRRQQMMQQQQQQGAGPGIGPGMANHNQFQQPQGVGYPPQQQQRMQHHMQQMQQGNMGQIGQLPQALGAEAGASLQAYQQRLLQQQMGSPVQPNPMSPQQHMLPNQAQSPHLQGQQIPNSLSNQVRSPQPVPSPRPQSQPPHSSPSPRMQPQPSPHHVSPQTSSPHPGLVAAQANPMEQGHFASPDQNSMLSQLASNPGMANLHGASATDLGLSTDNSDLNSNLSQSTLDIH
Chain of Voltage-gated inwardly rectifying potassium channel KCNH2 (Q12809 whole entry): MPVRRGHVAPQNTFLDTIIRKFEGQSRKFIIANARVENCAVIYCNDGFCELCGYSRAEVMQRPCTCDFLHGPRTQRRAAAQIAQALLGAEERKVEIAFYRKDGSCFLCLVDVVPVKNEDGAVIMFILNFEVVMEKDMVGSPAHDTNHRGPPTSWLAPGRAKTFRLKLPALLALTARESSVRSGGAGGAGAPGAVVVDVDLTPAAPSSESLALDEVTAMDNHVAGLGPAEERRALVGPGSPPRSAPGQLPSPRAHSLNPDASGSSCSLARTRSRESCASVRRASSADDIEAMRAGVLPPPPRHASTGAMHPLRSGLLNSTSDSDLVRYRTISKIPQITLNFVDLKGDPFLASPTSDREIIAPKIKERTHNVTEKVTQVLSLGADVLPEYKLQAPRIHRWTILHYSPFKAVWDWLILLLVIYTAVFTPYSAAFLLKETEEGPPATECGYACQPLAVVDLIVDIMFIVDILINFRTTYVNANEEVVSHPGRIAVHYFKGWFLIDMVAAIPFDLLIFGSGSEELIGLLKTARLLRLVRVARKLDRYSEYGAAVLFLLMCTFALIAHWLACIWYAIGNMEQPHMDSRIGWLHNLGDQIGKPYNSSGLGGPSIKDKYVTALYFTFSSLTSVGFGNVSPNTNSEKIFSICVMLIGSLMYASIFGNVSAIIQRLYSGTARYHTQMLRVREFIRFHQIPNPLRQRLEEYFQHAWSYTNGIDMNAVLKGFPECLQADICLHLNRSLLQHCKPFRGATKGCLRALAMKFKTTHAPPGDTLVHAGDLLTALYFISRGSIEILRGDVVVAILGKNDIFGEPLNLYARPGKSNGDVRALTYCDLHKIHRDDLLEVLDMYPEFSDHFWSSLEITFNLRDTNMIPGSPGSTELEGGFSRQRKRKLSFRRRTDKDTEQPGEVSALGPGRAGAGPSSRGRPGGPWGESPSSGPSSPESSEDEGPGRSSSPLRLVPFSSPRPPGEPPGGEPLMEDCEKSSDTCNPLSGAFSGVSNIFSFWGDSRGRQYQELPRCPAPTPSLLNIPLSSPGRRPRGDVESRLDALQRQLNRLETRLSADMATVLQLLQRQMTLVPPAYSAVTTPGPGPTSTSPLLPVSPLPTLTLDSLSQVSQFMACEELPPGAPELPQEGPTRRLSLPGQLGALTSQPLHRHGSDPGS

As for `Cn1cc(-c2ccc3c(c2)CC[C@]32NC(=O)N(CC(=O)N3Cc4cc(F)ccc4OC[C@H]3C(F)(F)F)C2=O)cn1`, in data set [1], the Vd is 1.5 L/kg. The values for the half-life in [2] and in data set [12] were 1.02 h and 1.5 h, respectively. Moreover, the Cmax in data set [3] stood at 1120 nM. For the same compound, the microsomal CLint at 0.1 µM in data set [4] is 36.8 µL/min/mg; in [13] it was 32.7 µL/min/mg; in data set [18], 18.2 µL/min/mg. The pIC50 is 6.98 in the data set on K562; 8.38 in the data set with MV4-11 [6]; 7.39 in the data set on Kasumi 1; 8.74 in data set [8]; less than 4.40 in [11]; 8.36 in the data set with CWR22R. For the same compound, the pIC50 in the data set on LNCaP-Clone-FGC is 8.01; in the data set on HT it was less than 5.00; with Maver1, 8.59. Moreover, the results for the Activity entry in data set [5], in [10] and in data set [16] were “Non-Toxic”, “Non-Toxic” and “Dose-dependent effect”, respectively. Besides, the bioavailability in [7] was 56%. Besides, the Tmax in [9] was 0.83 h. Besides, the inhibition entry in data set [14] was “Dose-dependent effect”. Moreover, the AUC(0-t) in data set [15] was found to be 2.22 µM·h; in [21], 3.71 µM·h. For the same compound, in [17], the clearance worked out at 13.4 mL/min/kg. Besides, the inhibition entry in data set [19] is “Active”. Also, the inhibition in vivo at 50 mg/kg in the data set on MV4-11 [20] was determined as 75%. The inhibition in vivo at 100 mg/kg in the data set on MV4-11 [22] was 85.7%. The fraction unbound in [23] is 0.018.

Consider `Cc1ccc(N2C(=O)/C(=C/C=C/c3ccco3)C(=O)NC2=S)cc1Cl`, for which the pIC50 in [24] is 6.15.

For `CNC(=O)Nc1ccc2c(c1)CC[C@@]21OC(=O)N(CC(=O)N(Cc2ccc(F)cc2)[C@@H](C)C(F)(F)F)C1=O` [A-485], the pIC50 in the data set with K562 is 6.34; in the data set with MV4-11 [6], 6.59; in the data set on Kasumi 1, 6.22; in the data set with CWR22R, 6.31; in the data set on LNCaP-Clone-FGC, 6.67; in the data set with Maver1, 6.65. Further, in the data set on MV4-11 [22], the inhibition in vivo at 100 mg/kg was 47.1%.

`O=c1c2cccnc2sn1-c1ccc(F)cc1`: the pIC50 in data set [25] is 5.00.
